Measured values: US7858630B2, “D3 and 5-HT2A receptor modulators” (Hoffmann-La Roche Inc., priority 2008, dated 2010)

How the values were obtained:
[1] = target: T1, human serotonin 5-HT2A receptor (Homo sapiens, UniProt P28223); assay: Radioligand binding ([3H]-ketanserin) to membranes of HEK-293 EBNA cells expressing human 5-HT2A receptor; conditions: 1.1 nM [3H]-ketanserin, HEK-293 EBNA membranes, 1 h at RT
T1 construct: expressed in transfected cells; host or cells: HEK-293 EBNA cells, transient transfection; membrane preparation
T1 sequence (P28223 whole entry): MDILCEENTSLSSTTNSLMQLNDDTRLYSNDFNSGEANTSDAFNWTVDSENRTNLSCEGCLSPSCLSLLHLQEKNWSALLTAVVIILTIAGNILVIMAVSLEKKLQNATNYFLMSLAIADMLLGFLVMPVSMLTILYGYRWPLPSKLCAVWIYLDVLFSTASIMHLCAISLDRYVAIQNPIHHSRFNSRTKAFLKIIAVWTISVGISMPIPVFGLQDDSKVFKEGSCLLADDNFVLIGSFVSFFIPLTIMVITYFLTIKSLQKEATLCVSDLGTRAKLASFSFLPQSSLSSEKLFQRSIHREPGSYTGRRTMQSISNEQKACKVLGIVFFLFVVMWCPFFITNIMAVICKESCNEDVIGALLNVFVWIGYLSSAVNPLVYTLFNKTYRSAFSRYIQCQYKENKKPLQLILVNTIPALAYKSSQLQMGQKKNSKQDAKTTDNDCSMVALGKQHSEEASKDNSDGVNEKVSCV
Experimental: (§1) The ability of the compounds to bind to the 5-HT2A, D3 and D2 receptors was determined using radioligand binding to cloned receptors selectively expressed in HEK-293 EBNA cells.
(§2) Membrane Preparation for Human D2, Human D3 and Human 5-HT2A Receptors
(§3) HEK-293 EBNA cells were transiently transfected with expression plasmids encoding for the human D2 or D3 dopamine- or for the human 5-HT2A serotonin receptor, respectively. The cells were harvested 48 h post-transfection, washed three times with cold PBS and stored at −80° C. prior to use. The pellet was suspended in cold 50 mM Tris-HCl buffer containing 10 mM EDTA (pH 7.4) and homogenized with a Polytron (Kinematica AG, Basel, Switzerland) for 20-30 sec at 12.000 rpm. After centrifugation at 48.000×g for 30 min at 4° C., the pellet was resuspended in cold 10 mM Tris-HCl buffer containing 0.1 mM EDTA (pH 7.4), homogenized, and centrifuged as above. This pellet was further resuspended in a smaller volume of ice cold 10 mM Tris-HCl buffer containing 0.1 mM EDTA (pH 7.4) and homogenized with a Polytron for 20-30 sec at 12.000 rpm. The protein content of this homogenate was determined with the Bio-Rad (Bradford) Protein Assay (Biorad Laboratories GmbH, München, Germany) according to the instructions of the manufacturer using gamma globulin as the standard. This homogenate was stored at −80° C. in aliquots and thawed immediately prior to use.
(§4) Radioligand Binding Assay Conditions
(§5) Aliquots of membrane preparations were thawed at RT, resupended in assay buffer (D2, D3: 50 mM Tris-HCl, 120 mM NaCl, 5 mM MgCl2, 1 mM EDTA, 5 mM KCl, 1.5 mM CaCl2, pH=7.4; 5-HT2A: 50 mM Tris-HCl, 10 mM MgCl2, 1 mM EGTA, pH=7.4), homogenized with a Polytron for 20-30 sec at 12.000 rpm and adjusted to a final concentration of approximately 7.5 μg protein/well (D2, D3) and 15 μg protein/well (5-HT2A), respectively.
(§6) The binding affinity (Ki) of the compounds was determined using radioligand binding. Membranes were incubated in a total volume of 200 μl with a fixed concentration of radioligand (final concentration approximately 0.7 nM [^3H]-spiperone for D2, 0.5 nM [^3H]-spiperone for D3, and 1.1 nM [^3H]-ketanserin for 5-HT2A) and ten concentrations of test compound in ranging between 10 μM-0.1 nM for 1 h at RT. At the end of the incubation, the reaction mixtures were filtered on to unifilter 96-well white microplates with bonded GF/C filters (Packard BioScience, Zurich, Switzerland; preincubated for 1 h in 0.1% polyethylenimine (PEI) in assay buffer) with a Filtermate 196 harvester (Packard BioScience) and washed 3 times with cold assay buffer. The nonspecific binding was determined with equally composed reaction mixtures in the presence of 10 μM unlabelled spiperone. Per well 45 μl of Microscint 40 (Perkin Elmer, Schwerzenbach, Switzerland) was added, plates for sealed, shaken for 20 min and counted for 3 min on a Topcount Microplate Scintillation Counter (Canberra Packard SA, Zurich, Switzerland) with quenching correction.
(§7) The CPM value for each duplicate of a concentration of competing compound was averaged (y1), then the % specific binding was calculated according to the equation (((y1−non-specific)/(total binding-non-specific))×100). Graphs were plotted with the % specific binding using XLfit, a curve fitting program that iteratively plots the data using Levenburg Marquardt algorithm. The single site competition analysis equation used was y=A+((B−A)/(1+((x/C)^D))), where y is the % specific binding, A is the minimum y, B is the maximum y, C is the IC50, x is the log10 of the concentration of the competing compound and D is the slope of the curve (the Hill Coefficient). From these curves the IC50 (inhibition concentration at which 50% specific binding of the radioligand was displaced) and Hill coefficient were determined. […]

[2] = target: T2, human dopamine D3 receptor (Homo sapiens, UniProt P35462); assay: Radioligand binding ([3H]-spiperone) to membranes of HEK-293 EBNA cells expressing human D3 receptor; conditions: human D3, 0.5 nM [3H]-spiperone, HEK-293 EBNA membranes, 1 h at RT
T2 construct: expressed in transfected cells; host or cells: HEK-293 EBNA cells, transient transfection; membrane preparation
T2 sequence (P35462 whole entry): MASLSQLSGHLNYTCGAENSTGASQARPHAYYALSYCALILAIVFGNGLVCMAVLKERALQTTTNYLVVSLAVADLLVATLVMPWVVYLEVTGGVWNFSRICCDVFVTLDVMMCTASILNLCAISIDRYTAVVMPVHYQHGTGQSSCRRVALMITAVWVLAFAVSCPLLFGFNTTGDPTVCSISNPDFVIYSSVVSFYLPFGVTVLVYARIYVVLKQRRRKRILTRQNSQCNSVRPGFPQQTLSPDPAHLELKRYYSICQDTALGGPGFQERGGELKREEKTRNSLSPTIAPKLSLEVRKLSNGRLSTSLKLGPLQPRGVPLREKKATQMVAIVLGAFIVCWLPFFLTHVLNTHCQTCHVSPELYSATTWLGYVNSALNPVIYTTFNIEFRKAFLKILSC
Experimental: as §1, §2, §3, §4, §5, §6, §7

[3] = target: T3, human dopamine D2 receptor (Homo sapiens, UniProt P14416); assay: Radioligand binding ([3H]-spiperone) to membranes of HEK-293 EBNA cells expressing human D2 receptor; conditions: human D2, 0.7 nM [3H]-spiperone, HEK-293 EBNA membranes, 1 h at RT
T3 construct: expressed in transfected cells; host or cells: HEK-293 EBNA cells, transient transfection; membrane preparation
T3 sequence (P14416 whole entry): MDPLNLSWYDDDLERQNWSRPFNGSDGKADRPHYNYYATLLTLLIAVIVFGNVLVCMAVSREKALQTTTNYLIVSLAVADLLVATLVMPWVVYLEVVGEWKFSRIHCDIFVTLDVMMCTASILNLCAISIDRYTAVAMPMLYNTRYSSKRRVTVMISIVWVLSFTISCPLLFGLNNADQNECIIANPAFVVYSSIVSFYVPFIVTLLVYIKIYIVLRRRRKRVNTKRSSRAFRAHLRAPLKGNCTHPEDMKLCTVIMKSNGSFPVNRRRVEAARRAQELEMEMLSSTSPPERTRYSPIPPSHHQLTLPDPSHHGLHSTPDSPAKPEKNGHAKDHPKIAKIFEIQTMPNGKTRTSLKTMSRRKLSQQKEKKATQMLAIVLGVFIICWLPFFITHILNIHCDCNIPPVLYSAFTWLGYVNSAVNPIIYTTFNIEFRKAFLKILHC
Experimental: as §1, §2, §3, §4, §5, §6, §7

Compound	Ki [1] [nM]	Ki [2] [nM]	Ki [3] [nM]
CC(C)OC1CCC(CC(=O)N[C@H]2CC[C@H](CCN3CCN(c4noc5ccc(F)cc45)CC3)CC2)CC1 (mixture of isomers) [Example 10, N-trans-(4-{2-[4-(5-Fluoro-benzo[d]isoxazol-3-yl)-piperazin-1-yl]-ethyl}-cyclohexyl)-2-(4-isopropoxy-cyclohexyl)-acetamide]	10.4	6.6	11500
CC(C)OC1CCC(CC(=O)N[C@H]2CC[C@H](CCN3CCN(c4noc5cc(Cl)ccc45)CC3)CC2)CC1 (mixture of isomers) [Example 51, N-trans-(4-{2-[4-(6-Chloro-benzo[d]isoxazol-3-yl)-piperazin-1-yl]-ethyl}-cyclohexyl)-2-(4-isopropoxy-cyclohexyl)-acetamide]	3.37	10.4	3020
CC1(C)CC(CC(=O)N[C@H]2CC[C@H](CCN3CCN(c4noc5ccc(F)cc45)CC3)CC2)CCO1 (mixture of isomers) [Example 18, Rac-2-(2,2-Dimethyl-tetrahydro-pyran-4-yl)-N-trans-(4-{2-[4-(5-fluoro-benzo[d]isoxazol-3-yl)-piperazin-1-yl]-ethyl}-cyclohexyl)-acetamide]	25.2	12.1	891
O=C(N[C@H]1CC[C@H](CCN2CCN(c3noc4cc(Cl)ccc34)CC2)CC1)C(O)C(F)(F)F (mixture of isomers) [Example 33, N-trans-(4-{2-[4-(6-Chloro-benzo[d]isoxazol-3-yl)-piperazin-1-yl]-ethyl}-cyclohexyl)-rac-3,3,3-trifluoro-2-hydroxy-propionamide]	12.4	14.8	362
CO[C@@H]1CC[C@@H](CC(=O)N[C@H]2CC[C@H](CCN3CCN(c4noc5ccccc45)CC3)CC2)C1 (relative stereo) [Example 3, N-trans-{4-[2-(4-Benzo[d]isoxazol-3-yl-piperazin-1-yl)-ethyl]-cyclohexyl]-2-trans-(3-methoxy-cyclopentyl)-acetamide]	482	13.9	355
CO[C@H]1CC[C@H](CC(=O)N[C@H]2CC[C@H](CCN3CCN(c4noc5cc(Cl)ccc45)CC3)CC2)C1 (relative stereo) [Example 36, N-trans-(4-{2-[4-(6-Chloro-benzo[d]isoxazol-3-yl)-piperazin-1-yl]-ethyl}-cyclohexyl)-2-trans-(3-methoxy-cyclopentyl)-acetamide]	2.74	10.1	683
CO[C@@H]1CC[C@@H](CC(=O)N[C@H]2CC[C@H](CCN3CCN(c4noc5cc(F)c(F)cc45)CC3)CC2)C1 (relative stereo) [Example 65, N-trans-(4-{2-[4-(5,6-Difluoro-benzo[d]isoxazol-3-yl)-piperazin-1-yl]-ethyl}-cyclohexyl)-2-trans-(3-methoxy-cyclopentyl)-acetamide]	4.4	7.67	822
O=C(CC1C[C@@H]2CC[C@H]1O2)N[C@H]1CC[C@H](CCN2CCN(c3noc4ccc(F)cc34)CC2)CC1 (stereo in doubt) [Example 19, N-trans-(4-{2-[4-(5-Fluoro-benzo[d]isoxazol-3-yl)-piperazin-1-yl]-ethyl}-cyclohexyl)-2-(1R,4S)-7-oxa-bicyclo[2.2.1]hept-2-yl-acetamide]	20.6	36	1020
COCCC(=O)N[C@H]1CC[C@H](CCN2CCN(c3noc4ccccc34)CC2)CC1 [Example 1, N-trans-{4-[2-(4-benzo[d]isoxazol-3-yl-piperazin-1-yl)-ethyl]-cyclohexyl}-3-methoxy-propionamide]	4.88	12.1	347
O=C(CC(F)(F)F)N[C@H]1CC[C@H](CCN2CCN(c3noc4cc(F)c(Cl)cc34)CC2)CC1 [Example 93, N-trans-(4-{2-[4-(5-Chloro-6-fluoro-benzo[d]isoxazol-3-yl)-piperazin-1-yl]-ethyl}-cyclohexyl)-3,3,3-trifluoro-propionamide]	6	1.96	–
